# Assay results taken from article PMC4514675, “Novel Apo E-Derived ABCA1 Agonist Peptide (CS-6253) Promotes Reverse Cholesterol Transport and Induces Formation of preβ-1 HDL In Vitro” (PLoS ONE, 2015).
# Several values for one entry are separate records, joined by “and”; a condition that tells them apart may be missing. Equal values may be shown once.
# Tests used:
# BHK-mock cells = assay: Cholesterol efflux from control cells (unstimulated BHK-ABCA1, BHK-mock), media; assay type: cell-based, hamster
# Text: (§1) BHK cells stably transfected with an ABCA1 or ABCG1 expression vector that is mifepristone inducible and cells transfected with the same vector lacking the ABCA1 cDNA insert (mutant or mock-transfected) were generously provided by the late Dr. John F. Oram from the Department of Medicine, University of Washington, and were characterized and cultured as previously described. […] Mouse-derived peritoneal macrophages J774 were purchased from American Tissue Culture Collection (ATCC TIB-67, Cederlane, Burlington, Canada). For induction of ABCA1, BHK cells were incubated for 18–20 h with 10 nM mifepristone. […]
# Fig 2 Effect of CS-6253 treatment on cholesterol efflux. […] Cholesterol efflux from either ABCA1 cells or control cells to apo A-I (closed circles), and CS-6253 (closed triangles) was determined at the indicated time points. […] ABCA1 was detected from THP-1 foam cells lysis at 4°C with lysis buffer containing 0.5% n-dodecylmaltoside in the presence of a protease inhibitor mixture followed by low speed centrifugation to remove cell debris. Protein concentration was determined by standard assay (Bio-Rad). […] After electrophoresis, ABCA1 was detected by an anti-ABCA1 antibody. […] 3[H]-FC and 3[H]-CE were separated by TLC and located by exposure to iodine vapor, and were scraped off into liquid scintillating vials and assayed for radioactivity. […]
# [1] = tested on: BHK-ABCA1 plasma membrane microdomains; assay: Cholesterol and phospholipid desorption from raft and non-raft domains of BHK-ABCA1 cells; assay type: cell-based, hamster; settings: 45 min
# Protocol: Lipid labeling was performed as described previously with minor modifications. Briefly, BHK-cells were labeled with either 5 μCi/ml ^3[H] choline (Perkin-Elmer) for 48 h or 3 μCi/ml ^3[H] cholesterol (Perkin-Elmer) for 24 h, and then stimulated as described above. […] For each fraction, lipids were extracted by Folch and ^3[H]choline-labeled PtdCho, and SM were separated by TLC in the solvent system chloroform-methanol-water (65:35:4; v/v/v), and counted.
# Supplementary file pone.0131997.s008.tif: S7 Fig CS-6253 desorbs phospholipids from raft and nonraft domains. […] After lipid extraction, ^3[H]cholesterol in each fraction was assessed for radioactivity. Radioactivity appearing in fractions corresponding to raft (1–5) and nonraft (6–10) material was pooled, and desorption of ^3[H]cholesterol and ^3[H]choline, from raft versus nonraft in the presence of apo A-I or CS-6253 was expressed as a percentage of control (100%, in the absence of acceptor) (S4 to S7 inset). […]
# Sucrose density gradient fractionation was performed by ultracentrifugation (1,2). […] Ten fractions of 1ml were collected from top to bottom and analyzed for radioactivity, and lipid content ^3[H]-FC and ^3[H]-choline. […]
# ABCA1 = biological target: T1, ABCA1 (Mus musculus, UniProt P41233); assay: ABCA1-mediated cholesterol efflux from cAMP-treated J774 macrophages; assay type: cell-based; settings: mean ± SD
# T1 construct: host or cells: J774 mouse macrophages stimulated with Cpt-cAMP
# T1 sequence (P41233 whole entry): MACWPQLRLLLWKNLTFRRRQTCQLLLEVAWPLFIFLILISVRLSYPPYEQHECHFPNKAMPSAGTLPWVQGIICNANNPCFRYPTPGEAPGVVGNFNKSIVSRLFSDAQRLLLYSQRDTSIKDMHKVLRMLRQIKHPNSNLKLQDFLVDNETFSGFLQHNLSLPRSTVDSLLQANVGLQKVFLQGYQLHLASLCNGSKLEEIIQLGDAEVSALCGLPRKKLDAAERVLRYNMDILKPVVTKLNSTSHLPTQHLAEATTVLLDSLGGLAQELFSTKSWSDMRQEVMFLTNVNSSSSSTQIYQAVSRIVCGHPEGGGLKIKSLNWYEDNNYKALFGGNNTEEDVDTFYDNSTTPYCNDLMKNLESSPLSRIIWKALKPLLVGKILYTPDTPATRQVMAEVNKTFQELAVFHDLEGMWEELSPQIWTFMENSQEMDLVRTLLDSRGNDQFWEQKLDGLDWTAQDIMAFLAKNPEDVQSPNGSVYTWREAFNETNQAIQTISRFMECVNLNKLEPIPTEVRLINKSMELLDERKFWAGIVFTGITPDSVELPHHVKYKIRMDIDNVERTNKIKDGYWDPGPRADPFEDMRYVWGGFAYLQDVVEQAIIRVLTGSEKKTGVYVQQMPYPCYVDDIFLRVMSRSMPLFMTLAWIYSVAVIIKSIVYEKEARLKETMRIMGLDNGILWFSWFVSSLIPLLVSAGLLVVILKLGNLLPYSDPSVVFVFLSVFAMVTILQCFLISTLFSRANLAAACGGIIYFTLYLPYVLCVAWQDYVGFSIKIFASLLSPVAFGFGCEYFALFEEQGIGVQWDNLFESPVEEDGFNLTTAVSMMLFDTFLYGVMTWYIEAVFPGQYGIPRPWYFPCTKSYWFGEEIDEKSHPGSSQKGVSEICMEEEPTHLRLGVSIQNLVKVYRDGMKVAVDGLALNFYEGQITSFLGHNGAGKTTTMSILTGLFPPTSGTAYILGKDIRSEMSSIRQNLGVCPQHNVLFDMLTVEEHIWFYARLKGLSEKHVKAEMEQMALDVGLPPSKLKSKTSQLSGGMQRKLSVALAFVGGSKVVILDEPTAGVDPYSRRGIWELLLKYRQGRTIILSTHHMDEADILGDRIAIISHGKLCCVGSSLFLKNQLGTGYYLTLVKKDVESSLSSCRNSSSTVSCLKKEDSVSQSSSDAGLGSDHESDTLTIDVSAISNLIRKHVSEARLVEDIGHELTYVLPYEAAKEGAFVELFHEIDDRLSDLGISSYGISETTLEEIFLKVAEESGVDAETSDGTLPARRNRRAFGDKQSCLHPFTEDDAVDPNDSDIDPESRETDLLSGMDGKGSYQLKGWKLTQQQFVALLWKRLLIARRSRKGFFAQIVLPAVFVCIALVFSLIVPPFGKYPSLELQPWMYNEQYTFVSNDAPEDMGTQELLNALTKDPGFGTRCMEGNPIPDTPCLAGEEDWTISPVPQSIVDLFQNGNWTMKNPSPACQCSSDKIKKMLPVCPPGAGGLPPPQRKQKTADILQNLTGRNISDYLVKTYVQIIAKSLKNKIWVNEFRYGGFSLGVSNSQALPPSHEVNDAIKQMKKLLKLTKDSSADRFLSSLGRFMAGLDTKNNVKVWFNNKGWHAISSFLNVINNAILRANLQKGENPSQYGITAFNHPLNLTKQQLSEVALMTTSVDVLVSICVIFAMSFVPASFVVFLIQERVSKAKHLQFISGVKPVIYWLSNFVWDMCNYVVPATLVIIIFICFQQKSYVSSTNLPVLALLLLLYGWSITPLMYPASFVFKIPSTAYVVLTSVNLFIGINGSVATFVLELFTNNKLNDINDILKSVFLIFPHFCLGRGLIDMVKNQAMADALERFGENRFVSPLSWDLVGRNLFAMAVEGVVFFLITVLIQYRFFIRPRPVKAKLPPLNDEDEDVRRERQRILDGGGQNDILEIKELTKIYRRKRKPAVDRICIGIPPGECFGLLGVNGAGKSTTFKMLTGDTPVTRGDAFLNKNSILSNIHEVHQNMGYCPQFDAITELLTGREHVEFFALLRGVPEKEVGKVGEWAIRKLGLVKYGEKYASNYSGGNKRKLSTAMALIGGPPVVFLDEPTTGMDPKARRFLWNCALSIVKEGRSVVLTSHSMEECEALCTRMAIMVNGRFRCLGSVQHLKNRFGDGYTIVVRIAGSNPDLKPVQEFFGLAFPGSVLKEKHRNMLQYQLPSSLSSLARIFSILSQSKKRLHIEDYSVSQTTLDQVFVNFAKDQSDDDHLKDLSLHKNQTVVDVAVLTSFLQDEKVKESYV
# Text: as §1, with “mifepristone. J774 macrophages were stimulated with 0.3 mM Cpt-cAMP 8-(4-Chlorophenylthio)-cyclic adenosine monophosphate (Sigma).” for “mifepristone.”
# All cell culture incubations were performed at 37 °C in a humidified 5% CO2. […] Media were collected, centrifuged at 3.000 g for 5min to remove cell debris, and counted for radioactivity. […] Further, 0.2 ml cells lysates were mixed with scintillation liquid and counted for radioactivity. […] Cholesterol efflux was calculated according to the following formula as the percentage of ^3H-cpm medium/(^3H-cpm medium + ^3H-cpm cells) x 100%. Efflux efficiency (Km) was calculated using the Michaelis-Menten equation (Graph-Pad Prism6 software) respectively (S1, S8 and S9 Figs.)
substance,measurement,setting,value
apolipoprotein A-I [apo A-I],maximum cholesterol efflux by diffusion,BHK-mock cells; BHK mock and unstimulated BHK-ABCA1 cells,0.75%
same,cholesterol efflux from control cells,"BHK-mock cells; unstimulated BHK-ABCA1 and BHK-mock, CS-6253 30 μg/ml, apo A-I 10 μg/ml",no significant cholesterol efflux
same,cholesterol desorption from rafts and non-rafts,[1],25%
same,"Km, cholesterol efflux",ABCA1; 6 h,3.82±1.81 μg/ml and 0.15±0.05 μM
same,"Vmax, cholesterol efflux",ABCA1,6.90±1.06 % efflux/6h
